# Results reported in ChEMBL document CHEMBL1128873, “The synthesis and antibacterial activity of 2-carbolinyl-carbapenems: potent anti-MRSA/MRCNS agents” (1995).
# Columns and labels:
# Type in all cases: functional
# Staphylococcus aureus [1] = assay: In vitro antibacterial activity against Methicillin-resistant Staphylococcus aureus (MRSA) by broth microtube dilution method; value ranges from 1-8
# Proteus [2] = assay: In vitro antibacterial against Proteus species. by agar disc diffusion assay method with respect to imipenem
# Pseudomonas aeruginosa = assay: In vitro antibacterial against Pseudomonas aeruginosa by agar disc diffusion assay method
# Staphylococcus sp. [3] = assay: In vitro antibacterial activity against Methicillin-resistant coagulase negative Staphylococci (MRCNS) by broth microtube dilution method; value ranges from 1-4
# Klebsiella sp. [4] = assay: In vitro antibacterial against Klebsiella species. by agar disc diffusion assay method with respect to imipenem
# Enterobacter sp. [5] = assay: In vitro antibacterial against Enterobacter species. by agar disc diffusion assay method with respect to imipenem
# Serratia [6] = assay: In vitro antibacterial against Serratia species. by agar disc diffusion assay method with respect to imipenem
# Sus scrofa [7] = species: Sus scrofa; assay: DHP-I (porcine) susceptibility with respect to imipenem
# Enterococcus sp. [8] = assay: In vitro antibacterial against Enterococcus species. by agar disc diffusion assay method with respect to imipenem
# Staphylococcus aureus [9] = assay: In vitro antibacterial activity against Methicillin-resistant Staphylococcus aureus (MRSA) by agar disc diffusion assay method with respect to imipenem
# Escherichia coli [10] = assay: In vitro antibacterial against Escherichia coli by agar disc diffusion assay method with respect to imipenem
# Staphylococcus sp. [11] = assay: In vitro antibacterial activity against Methicillin-resistant coagulase negative Staphylococci (MRCNS) by agar disc diffusion assay method with respect to imipenem
# Staphylococcus aureus [12] = assay: In vitro antibacterial activity against Methicillin-susceptible Staphylococcus aureus (MSSA) by agar disc diffusion assay method with respect to imipenem
# Staphylococcus aureus [13] = assay: In vitro antibacterial activity against Methicillin-resistant Staphylococcus aureus (MRSA) by broth microtube dilution method
# Staphylococcus sp. [14] = assay: In vitro antibacterial activity against Methicillin-resistant coagulase negative Staphylococci (MRCNS) by broth microtube dilution method; value ranges from 4-8
# Staphylococcus aureus [15] = assay: In vitro antibacterial activity against Methicillin-resistant Staphylococcus aureus (MRSA) by broth microtube dilution method; value ranges from 1-16
# Staphylococcus sp. [16] = assay: In vitro antibacterial activity against Methicillin-resistant coagulase negative Staphylococci (MRCNS) by broth microtube dilution method; value ranges from 4-32
# Staphylococcus sp. [17] = assay: In vitro antibacterial activity against Methicillin-resistant coagulase negative Staphylococci (MRCNS) by broth microtube dilution method; value ranges from 2-16
# Staphylococcus aureus [18] = assay: In vitro antibacterial activity against Methicillin-resistant Staphylococcus aureus (MRSA) by broth microtube dilution method; value ranges from 0.5-8
# Serratia [19] = assay: In vitro antibacterial against Serratia species. by agar disc diffusion assay method
# Staphylococcus aureus [20] = assay: In vitro antibacterial activity against Methicillin-resistant Staphylococcus aureus (MRSA) by broth microtube dilution method; value ranges from 128 to >128
# Staphylococcus aureus [21] = assay: In vitro antibacterial activity against Methicillin-susceptible Staphylococcus aureus (MSSA) by agar disc diffusion assay method
# Klebsiella sp. [22] = assay: In vitro antibacterial against Klebsiella species. by agar disc diffusion assay method
# Sus scrofa [23] = species: Sus scrofa; assay: DHP-I(porcine) susceptibility was determined
# Escherichia coli [24] = assay: In vitro antibacterial against Escherichia coli by agar disc diffusion assay method
# Proteus [25] = assay: In vitro antibacterial against Proteus species. by agar disc diffusion assay method
# Staphylococcus sp. [26] = assay: In vitro antibacterial activity against Methicillin-resistant coagulase negative Staphylococci (MRCNS) by broth microtube dilution method; value ranges from 128 to >128
# Enterococcus sp. [27] = assay: In vitro antibacterial against Enterococcus species. by agar disc diffusion assay method
# Enterobacter sp. [28] = assay: In vitro antibacterial against Enterobacter species. by agar disc diffusion assay method
# Staphylococcus aureus [29] = assay: In vitro antibacterial activity against Methicillin-resistant Staphylococcus aureus (MRSA) by broth microtube dilution method; value ranges from 0.5-4
Compound,Relative potency (Proteus [2]),Relative potency (Pseudomonas aeruginosa),Relative potency (Klebsiella sp. [4]),Relative potency (Enterobacter sp. [5]),Relative potency (Serratia [6]),Relative susceptibility (Sus scrofa [7]),Relative potency (Enterococcus sp. [8]),Relative potency (Staphylococcus aureus [9]),Relative potency (Escherichia coli [10]),Relative potency (Staphylococcus sp. [11]),Relative potency (Staphylococcus aureus [12]),also measured
C[C@@H]([O-])[C@H]1C(=O)N2C(C(=O)[O-])=C(c3ccc4c(c3)c3cc[n+](C)cc3n4C)C[C@H]12.[Na+],21 fold,0.035 fold,2.5 fold,2.5 fold,3.6 fold,0.01,3.8 fold,23 fold,3.8 fold,287 fold,0.38 fold,MIC50 (Staphylococcus aureus [1]): 2 µg/mL; MIC90 (Staphylococcus aureus [1]): 4 µg/mL; MIC50 (Staphylococcus sp. [3]): 4 µg/mL; MIC90 (Staphylococcus sp. [3]): 4 µg/mL
CN[C@H](CC(C)C)C(=O)N[C@H]1C(=O)N[C@@H](CC(N)=O)C(=O)N[C@H]2C(=O)N[C@H]3C(=O)N[C@H](C(=O)N[C@H](C(=O)O)c4cc(O)cc(O)c4-c4cc3ccc4O)[C@H](O)c3ccc(c(Cl)c3)Oc3cc2cc(c3O[C@@H]2O[C@H](CO)[C@@H](O)[C@H](O)[C@H]2O[C@H]2C[C@](C)(N)[C@H](O)[C@H](C)O2)Oc2ccc(cc2Cl)[C@H]1O [VANCOMYCIN],–,–,–,–,–,–,–,–,–,–,–,MIC90 (Staphylococcus aureus [13]): 2 µg/mL; MIC90 (Staphylococcus sp. [14]): 4 µg/mL
C[C@@H](O)[C@H]1C(=O)N2C(C(=O)[O-])=C(c3ccc4c(c3)c3cccnc3n4C)C[C@H]12.[Na+],1.4 fold,0.007 fold,0.059 fold,0.034 fold,0.1 fold,0.06,2.1 fold,8 fold,0.12 fold,8.6 fold,0.17 fold,MIC50 (Staphylococcus aureus [15]): 4 µg/mL; MIC90 (Staphylococcus aureus [15]): 8 µg/mL; MIC50 (Staphylococcus sp. [16]): 8 µg/mL; MIC90 (Staphylococcus sp. [16]): 16 µg/mL
C[C@@H](O)[C@H]1C(=O)N2C(C(=O)[O-])=C(c3cccc4c3c3cccnc3n4C)C[C@H]12.[Na+],1.2 fold,0.009 fold,0.08 fold,0.092 fold,0.38 fold,0,1.4 fold,13 fold,0.25 fold,12 fold,0.26 fold,MIC50 (Staphylococcus aureus [15]): 4 µg/mL; MIC90 (Staphylococcus aureus [15]): 8 µg/mL; MIC50 (Staphylococcus sp. [17]): 8 µg/mL; MIC90 (Staphylococcus sp. [17]): 16 µg/mL
C[C@@H](O)[C@H]1C(=O)N2C(C(=O)[O-])=C(c3ccc4c5cccnc5n(C)c4c3)C[C@H]12.[Na+],0.59 fold,0.007 fold,0.054 fold,0.041 fold,0.051 fold,0.02,1.5 fold,4.9 fold,0.15 fold,4.1 fold,0.15 fold,–
C[C@@H]([O-])[C@H]1C(=O)N2C(C(=O)[O-])=C(c3ccc4c(c3)c3c(ccc[n+]3C)n4C)C[C@H]12.[Na+],9.3 fold,0.018 fold,1.1 fold,1.2 fold,2.2 fold,0,2.5 fold,12 fold,1.3 fold,27 fold,0.58 fold,MIC50 (Staphylococcus aureus [1]): 4 µg/mL; MIC90 (Staphylococcus aureus [1]): 8 µg/mL; MIC50 (Staphylococcus sp. [17]): 8 µg/mL; MIC90 (Staphylococcus sp. [17]): 16 µg/mL
C[C@@H]([O-])[C@H]1C(=O)N2C(C(=O)[O-])=C(c3ccc4[nH]c5c[n+](C)ccc5c4c3)C[C@H]12.[Na+],25 fold,0.027 fold,2.8 fold,7.7 fold,12 fold,0.027,2.8 fold,28 fold,9.2 fold,166 fold,0.42 fold,MIC50 (Staphylococcus aureus [18]): 2 µg/mL; MIC90 (Staphylococcus aureus [18]): 4 µg/mL; MIC50 (Staphylococcus sp. [3]): 4 µg/mL; MIC90 (Staphylococcus sp. [3]): 4 µg/mL
C[C@@H](O)[C@H]1C(=O)N2C(C(=O)[O-])=C(c3ccc4c(c3)c3ncccc3n4C)C[C@H]12.[Na+],6.6 fold,0.006 fold,0.16 fold,0.065 fold,0.37 fold,1.8,1.2 fold,5.3 fold,0.31 fold,4.5 fold,0.2 fold,–
CC[n+]1cccc2c3cc(C4=C(C(=O)[O-])N5C(=O)[C@H]([C@@H](C)[O-])[C@H]5C4)ccc3n(C)c21.[Na+],11 fold,0.035 fold,1.4 fold,1.4 fold,3.2 fold,0.01,3.7 fold,21 fold,2.8 fold,277 fold,0.43 fold,–
C[C@@H](O)[C@H]1C(=O)N2C(C(=O)[O-])=C(c3ccc4c(c3)c3c[n+](C)ccc3n4C)C[C@H]12,14 fold,0.026 fold,1.2 fold,0.94 fold,2.1 fold,0.007,3.7 fold,14 fold,1.5 fold,40 fold,0.59 fold,MIC50 (Staphylococcus aureus [1]): 4 µg/mL; MIC90 (Staphylococcus aureus [1]): 8 µg/mL; MIC50 (Staphylococcus sp. [17]): 8 µg/mL; MIC90 (Staphylococcus sp. [17]): 16 µg/mL
C[C@@H](O)[C@H]1C(=O)N2C(C(=O)O)=C(c3ccc4c(c3)c3ccncc3n4C)C[C@H]12,–,–,–,–,–,0.034,–,–,–,–,–,–
C[C@@H](O)[C@H]1C(=O)N2C(C(=O)O)=C(SCCNC=N)C[C@H]12 [IMIPENEM ANHYDROUS],–,–,–,–,–,–,–,–,–,–,–,MIC (Serratia [19]): 0.76 µg/mL; MIC90 (Staphylococcus aureus [20]): > 128 µg/mL; MIC (Staphylococcus aureus [21]): 0.009 µg/mL; MIC (Klebsiella sp. [22]): 0.59 µg/mL; MIC (Pseudomonas aeruginosa): 0.31 µg/mL; Relative susceptibility (Sus scrofa [23]): 1; MIC (Escherichia coli [24]): 0.68 µg/mL; MIC (Proteus [25]): 0.95 µg/mL; MIC90 (Staphylococcus sp. [26]): > 128 µg/mL; MIC (Enterococcus sp. [27]): 2.8 µg/mL; MIC (Enterobacter sp. [28]): 0.49 µg/mL
C[C@@H](O)[C@H]1C(=O)N2C(C(=O)[O-])=C(c3ccc4c(c3)c3cnccc3n4C)C[C@H]12.[Na+],20 fold,0.018 fold,0.94 fold,0.98 fold,4.8 fold,0,4 fold,11 fold,1.8 fold,40 fold,0.56 fold,MIC50 (Staphylococcus aureus [18]): 4 µg/mL; MIC90 (Staphylococcus aureus [18]): 8 µg/mL; MIC50 (Staphylococcus sp. [17]): 8 µg/mL; MIC90 (Staphylococcus sp. [17]): 16 µg/mL
C[C@@H]([O-])[C@H]1C(=O)N2C(C(=O)[O-])=C(c3ccc4c(c3)c3ccc[n+](C)c3n4C)C[C@H]12.[Na+],26 fold,0.057 fold,3 fold,2.8 fold,4.5 fold,0.05,3.9 fold,30 fold,4.8 fold,313 fold,0.49 fold,MIC50 (Staphylococcus aureus [29]): 2 µg/mL; MIC90 (Staphylococcus aureus [29]): 4 µg/mL; MIC50 (Staphylococcus sp. [3]): 4 µg/mL; MIC90 (Staphylococcus sp. [3]): 4 µg/mL
